This is an account of results in PMC12494546, “Structural basis of heme scavenging by the ChtA and HtaA hemophores in Corynebacterium diphtheriae” (The Journal of Biological Chemistry, 2025).

Assay [1] has as its target HtaA^CR1 (residues S37-G214). Briefly: Estimated hemin KD from native ESI-MS partitioning. The note with it: read-out: estimated KD for hemin, from nESI-MS Krel using ITC value of ChtA^CR as reference. It is filed as binding, Corynebacterium diphtheriae. From the text: (§1) The C. diphtheriae hemin-uptake system contains six CR domains that are located at distinct sites outside the cell (Fig. 1). […] Together, they represent nearly the full complement of C. diphtheriae’s CR domains (only the domains from ChtB and ChtC are missing, but they are expected to have similar binding properties as their paralogs, HtaB and ChtA, respectively). […] Similar measurements were made for the following protein pairs: HtaA^CR2/HtaB^CR, HtaA^CR1/HtaB^CR, HtaA^CR2/HtaA^CR1, ChtA^CR/HtaA^CR2, and ChtA^CR/HtaB^CR (Table S4).
(§2) nESI-MS was used for ligand (heme)-competition experiments between CR domain pairs to determine their relative heme dissociation constant Krelative (Krel) ([37], [56]). In this approach, two different CR domains (e.g. a >90% heme-loaded “heme donor” and a <10% heme-loaded “heme acceptor” CR domain) are mixed and allowed to come to equilibrium (>6 h, 24 °C). The resulting mixture is then analyzed by nESI-MS, where the apo- and holo-abundance of each CR domain is determined from the sum peak intensity from each of their charge states as described previously ([37]). The relative affinity between the CR pair tested can be determined by their nESI-MS abundances according to Equation 1, which is derived from the ratio of each CR’s KD for heme. Importantly, this analysis is independent of [heme] and Krel should be consistent across different concentrations of [heme donor] and [heme acceptor]; thus, we used at least three different holo-donor and apo-acceptor stoichiometry ratios to determine each Krel reported in Table S4.(eq. 1) KRelative=[CR^hemeacceptor][CR^hemedonor·heme]/[CR^hemedonor][CR^hemeacceptor·heme]=Ab(CR^hemeacceptor)Ab(CR^hemedonor·heme)/Ab(CR^hemedonor)Ab(CR^hemeacceptor·heme)
(§3) For nESI-MS heme-competition experiments, CR domains were first buffer-exchanged into 50 mM ammonium acetate (pH 6.9) using dialysis or gel filtration and protein concentration was determined by bicinchoninic acid assay or UV-visible absorbance at 280 nm. […]

The target of assay [2] is HtaA^CR2 (residues G344-G506). The assay can be described thus: Estimated hemin KD from native ESI-MS partitioning. It is filed as binding, Corynebacterium diphtheriae. The settings on record: read-out: estimated KD for hemin, from nESI-MS Krel using ITC value of ChtA^CR as reference.
Source text: as §1, §2, §3

For assay [3], the target named is HtaB^CR (HtaB, residues of 30–273). The assay can be described thus: Estimated hemin KD from native ESI-MS partitioning. It is filed as binding, Corynebacterium diphtheriae. The note with it: read-out: estimated KD for hemin, from nESI-MS Krel using ITC value of ChtA^CR as reference.
Source text: as §1, §2, §3

For a further assay, the target named is IsdA NEAT domain. The arrangement: method as in PMID 23649633, PMID 24245481. The settings on record: ITC, ref [57], [58]; cited from earlier work. (In ITC the heat of successive injections is recorded.)
The next assay deals with T1, metHb (Homo sapiens, UniProt P68871+P69905).
T1 construct: blood-purified HbA in the carbonmonoxy form; from tissue; host or cells: blood
Briefly: Hemin release kinetics from metHb (A405 plate reader assay with apo-acceptor). The note with it: 5 µM metHb, brackets 95% confidence interval; for kfast / kslow: 25 °C. It is filed as binding. As to the method:
Holo-metHb was injected to a final concentration of 5 μM on the heme basis in triplicate with 50 μM of the respective apo protein in a 384-well plate. The absorbance at 405 nm was measured every 2.5 min for 20 h in a SpectraMax iD3 plate reader (Molecular Devices). Experiments were performed at 25 °C to avoid apo-globin aggregation. Resulting curves were fit to a two-phase exponential decay equation in GraphPad Prism version 9.5.0 (GraphPad Software).
Bracketed values represent the 95% confidence interval for the fitted parameter values.

The mark [4] stands for this setting: apo-acceptor Myoglobin^H64Y/V68F 50 µM.

T1 sequence (P69905 2-142 limits assumed): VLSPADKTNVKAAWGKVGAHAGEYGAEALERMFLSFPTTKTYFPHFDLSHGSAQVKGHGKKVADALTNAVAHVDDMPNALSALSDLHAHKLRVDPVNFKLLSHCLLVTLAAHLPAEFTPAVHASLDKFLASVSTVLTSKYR
T1 sequence (P68871 2-147 limits assumed): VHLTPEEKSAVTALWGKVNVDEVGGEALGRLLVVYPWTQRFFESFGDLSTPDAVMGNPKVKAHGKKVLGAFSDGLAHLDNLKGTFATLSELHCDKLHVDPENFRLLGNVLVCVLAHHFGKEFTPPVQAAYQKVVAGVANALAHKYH

As to hemin, the Kd was 1.1 ± 0.3 nM in assay [1], 0.85 ± 0.15 nM in assay [2], 5.4 ± 1 nM in assay [3] and 14 ± 4 nM at IsdA NEAT domain. The kfast was 1.78 [1.51 - 2.1] hr^-1 at metHb (apo-acceptor ChtA^CR 50 µM), 1.55 [1.13 - 2.15] hr^-1 on metHb (apo-acceptor HtaA^CR1 50 µM) and 2.46 [2.23 - 2.72] hr^-1 on metHb (apo-acceptor HtaA^CR2 50 µM). The kslow is 0.18 [0.17 - 0.19] hr^-1 at metHb (apo-acceptor ChtA^CR 50 µM), 0.21 [0.18 - 0.23] hr^-1 at metHb (apo-acceptor HtaA^CR1 50 µM), 0.21 [0.19 to 0.22] hr^-1 on metHb (apo-acceptor HtaA^CR2 50 µM) and 0.13 [0.11 - 0.14] hr^-1 at metHb (setting [4]). Further, the “%kfast” value amounted to 35.52% [33.1% - 37.9%] at metHb (apo-acceptor ChtA^CR 50 µM), 33.11% [26.9% - 39%] on metHb (apo-acceptor HtaA^CR1 50 µM), 41.11% [39.3% - 42.9%] at metHb (apo-acceptor HtaA^CR2 50 µM) and 34.6% [30.8% - 38.3%] on metHb (setting [4]).

Usually Kd stands for a measure of binding affinity in units of concentration.
